{"source": "ChEMBL document CHEMBL4138146", "about": "“A Schmidt rearrangement-mediated synthesis of novel tetrahydro-benzo[1,4]diazepin-5-ones as potential anticancer and antiprotozoal agents” (Eur J Med Chem, 2017)", "assay_type_in_all_cases": "functional", "key": {"IGROV-1": {"tested_on": "IGROV-1", "experiment": "Growth inhibition of human IGROV1 cells assessed as cell growth at 10^-4 M incubated for 48 hrs by sulforhodamine B assay relative to control", "conditions": "IGROV-1, 48 h, read-out: Activity"}, "SK-MEL-5": {"tested_on": "SK-MEL-5", "experiment": "Growth inhibition of human SK-MEL-5 cells assessed as cell growth at 10^-7 M incubated for 48 hrs by sulforhodamine B assay relative to control", "conditions": "SK-MEL-5, 48 h, read-out: Activity"}, "HT-29": {"tested_on": "HT-29", "experiment": "Growth inhibition of human HT-29 cells assessed as cell growth at 10^-4 M incubated for 48 hrs by sulforhodamine B assay relative to control", "conditions": "HT-29, 48 h, read-out: Activity"}, "HOP-62": {"tested_on": "HOP-62", "experiment": "Growth inhibition of human HOP62 cells assessed as cell growth at 10^-7 M incubated for 48 hrs by sulforhodamine B assay relative to control", "conditions": "HOP-62, 48 h, read-out: Activity"}, "U-251": {"tested_on": "U-251", "experiment": "Growth inhibition of human U251 cells assessed as cell growth at 10^-8 M incubated for 48 hrs by sulforhodamine B assay relative to control", "conditions": "U-251, 48 h, read-out: Activity"}, "T47D": {"tested_on": "T47D", "experiment": "Growth inhibition of human T47D cells assessed as cell growth at 10^-4 M incubated for 48 hrs by sulforhodamine B assay relative to control", "conditions": "read-out: Activity"}, "SNB-75": {"tested_on": "SNB-75", "experiment": "Growth inhibition of human SNB75 cells assessed as cell growth at 10^-8 M incubated for 48 hrs by sulforhodamine B assay relative to control", "conditions": "SNB-75, 48 h, read-out: Activity"}, "SF-268 [1]": {"tested_on": "SF-268", "experiment": "Growth inhibition of human SF268 cells assessed as cell growth at 10^-5 M incubated for 48 hrs by sulforhodamine B assay relative to control", "conditions": "SF-268, 48 h, read-out: Activity"}, "KM12": {"tested_on": "KM12", "experiment": "Growth inhibition of human KM12 cells assessed as cell growth at 10^-8 M incubated for 48 hrs by sulforhodamine B assay relative to control", "conditions": "KM12, 48 h, read-out: Activity"}, "CCRF-CEM": {"tested_on": "CCRF-CEM", "experiment": "Growth inhibition of human CCRF-CEM cells assessed as cell growth at 10^-8 M incubated for 48 hrs by sulforhodamine B assay relative to control", "conditions": "read-out: Activity"}, "PC-3 [2]": {"tested_on": "PC-3", "experiment": "Growth inhibition of human PC3 cells assessed as cell growth at 10^-8 M incubated for 48 hrs by sulforhodamine B assay relative to control", "conditions": "PC-3, 48 h, read-out: Activity"}, "HOP-92": {"tested_on": "HOP-92", "experiment": "Growth inhibition of human HOP92 cells assessed as cell growth at 10^-8 M incubated for 48 hrs by sulforhodamine B assay relative to control", "conditions": "HOP-92, 48 h, read-out: Activity"}, "HCT-116": {"tested_on": "HCT-116", "experiment": "Growth inhibition of human HCT116 cells assessed as cell growth at 10^-8 M incubated for 48 hrs by sulforhodamine B assay relative to control", "conditions": "HCT-116, 48 h, read-out: Activity"}, "PC-3 [3]": {"tested_on": "PC-3", "experiment": "Growth inhibition of human PC3 cells assessed as cell growth at 10^-5 M incubated for 48 hrs by sulforhodamine B assay relative to control", "conditions": "PC-3, 48 h, read-out: Activity"}, "OVCAR-3 [4]": {"tested_on": "OVCAR-3", "experiment": "Growth inhibition of human OVCAR3 cells assessed as cell growth at 10^-4 M incubated for 48 hrs by sulforhodamine B assay relative to control", "conditions": "OVCAR-3, 48 h, read-out: Activity"}, "786-0": {"tested_on": "786-0", "experiment": "Growth inhibition of human 786-0 cells assessed as cell growth at 10^-7 M incubated for 48 hrs by sulforhodamine B assay relative to control", "conditions": "786-0, 48 h, read-out: Activity"}, "RPMI-8226 [5]": {"tested_on": "RPMI-8226", "experiment": "Growth inhibition of human RPMI8226 cells assessed as cell growth at 10^-4 M incubated for 48 hrs by sulforhodamine B assay relative to control", "conditions": "RPMI-8226, 48 h, read-out: Activity"}, "SF-268 [6]": {"tested_on": "SF-268", "experiment": "Growth inhibition of human SF268 cells assessed as cell growth at 10^-8 M incubated for 48 hrs by sulforhodamine B assay relative to control", "conditions": "SF-268, 48 h, read-out: Activity"}, "HL-60(TB)": {"tested_on": "HL-60(TB)", "experiment": "Growth inhibition of human HL-60(TB) cells assessed as cell growth at 10^-7 M incubated for 48 hrs by sulforhodamine B assay relative to control", "conditions": "HL-60, 48 h, read-out: Activity"}, "K562": {"tested_on": "K562", "experiment": "Growth inhibition of human K562 cells assessed as cell growth at 10^-7 M incubated for 48 hrs by sulforhodamine B assay relative to control", "conditions": "K562, 48 h, read-out: Activity"}, "RPMI-8226 [7]": {"tested_on": "RPMI-8226", "experiment": "Growth inhibition of human RPMI8226 cells assessed as cell growth at 10^-7 M incubated for 48 hrs by sulforhodamine B assay relative to control", "conditions": "RPMI-8226, 48 h, read-out: Activity"}, "ACHN": {"tested_on": "ACHN", "experiment": "Growth inhibition of human ACHN cells assessed as cell growth at 10^-8 M incubated for 48 hrs by sulforhodamine B assay relative to control", "conditions": "read-out: Activity"}, "HCT-15": {"tested_on": "HCT-15", "experiment": "Growth inhibition of human HCT15 cells assessed as cell growth at 10^-8 M incubated for 48 hrs by sulforhodamine B assay relative to control", "conditions": "HCT-15, 48 h, read-out: Activity"}, "MCF7": {"tested_on": "MCF7", "experiment": "Growth inhibition of human MCF7 cells assessed as cell growth at 10^-5 M incubated for 48 hrs by sulforhodamine B assay relative to control", "conditions": "MCF7, 48 h, read-out: Activity"}, "BT-549": {"tested_on": "BT-549", "experiment": "Growth inhibition of human BT549 cells assessed as cell growth at 10^-5 M incubated for 48 hrs by sulforhodamine B assay relative to control", "conditions": "BT-549, 48 h, read-out: Activity"}, "NCI-H460": {"tested_on": "NCI-H460", "experiment": "Growth inhibition of human NCI-H460 cells assessed as cell growth at 10^-6 M incubated for 48 hrs by sulforhodamine B assay relative to control", "conditions": "NCI-H460, 48 h, read-out: Activity"}, "MOLT-4": {"tested_on": "MOLT-4", "experiment": "Growth inhibition of human MOLT4 cells assessed as cell growth at 10^-7 M incubated for 48 hrs by sulforhodamine B assay relative to control", "conditions": "MOLT-4, 48 h, read-out: Activity"}, "RPMI-8226 [8]": {"tested_on": "RPMI-8226", "experiment": "Growth inhibition of human RPMI8226 cells assessed as cell growth at 10^-5 M incubated for 48 hrs by sulforhodamine B assay relative to control", "conditions": "RPMI-8226, 48 h, read-out: Activity"}, "NCI-H226": {"tested_on": "NCI-H226", "experiment": "Growth inhibition of human NCI-H226 cells assessed as cell growth at 10^-6 M incubated for 48 hrs by sulforhodamine B assay relative to control", "conditions": "NCI-H226, 48 h, read-out: Activity"}, "NCI-H322M": {"tested_on": "NCI-H322M", "experiment": "Growth inhibition of human NCI-H322M cells assessed as cell growth at 10^-7 M incubated for 48 hrs by sulforhodamine B assay relative to control", "conditions": "read-out: Activity"}, "SNB-19": {"tested_on": "SNB-19", "experiment": "Growth inhibition of human SNB19 cells assessed as cell growth at 10^-8 M incubated for 48 hrs by sulforhodamine B assay relative to control", "conditions": "SNB-19, 48 h, read-out: Activity"}, "OVCAR-3 [9]": {"tested_on": "OVCAR-3", "experiment": "Growth inhibition of human OVCAR3 cells assessed as cell growth at 10^-8 M incubated for 48 hrs by sulforhodamine B assay relative to control", "conditions": "OVCAR-3, 48 h, read-out: Activity"}, "LOX IMVI": {"tested_on": "LOX IMVI", "experiment": "Growth inhibition of human LOXIMVI cells assessed as cell growth at 10^-8 M incubated for 48 hrs by sulforhodamine B assay relative to control", "conditions": "read-out: Activity"}, "SF-295": {"tested_on": "SF-295", "experiment": "Growth inhibition of human SF295 cells assessed as cell growth at 10^-6 M incubated for 48 hrs by sulforhodamine B assay relative to control", "conditions": "SF-295, 48 h, read-out: Activity"}}, "data": [{"smiles": "CCCCOc1nc2ccccc2cc1C1CNC(=O)c2ccccc2N1", "note": "(centres undefined)", "values": [{"measurement": "growth at 100 µM", "setting": "IGROV-1", "result": -51, "unit": "%"}, {"measurement": "growth at 0.1 µM", "setting": "SK-MEL-5", "result": 100, "unit": "%"}, {"measurement": "growth at 100 µM", "setting": "HT-29", "result": -61, "unit": "%"}, {"measurement": "growth at 0.1 µM", "setting": "HOP-62", "result": 98, "unit": "%"}, {"measurement": "growth at 0.01 µM", "setting": "U-251", "result": 99, "unit": "%"}, {"measurement": "growth at 100 µM", "setting": "T47D", "result": 10, "unit": "%"}, {"measurement": "growth at 0.01 µM", "setting": "SNB-75", "result": 73, "unit": "%"}, {"measurement": "growth at 10 µM", "setting": "SF-268 [1]", "result": 31, "unit": "%"}, {"measurement": "growth at 0.01 µM", "setting": "KM12", "result": 98, "unit": "%"}, {"measurement": "growth at 0.01 µM", "setting": "CCRF-CEM", "result": 98, "unit": "%"}, {"measurement": "growth at 0.01 µM", "setting": "PC-3 [2]", "result": 96, "unit": "%"}, {"measurement": "growth at 0.01 µM", "setting": "HOP-92", "result": 76, "unit": "%"}, {"measurement": "growth at 0.01 µM", "setting": "HCT-116", "result": 101, "unit": "%"}, {"measurement": "growth at 10 µM", "setting": "PC-3 [3]", "result": 9, "unit": "%"}, {"measurement": "growth at 100 µM", "setting": "OVCAR-3 [4]", "result": -92, "unit": "%"}, {"measurement": "growth at 0.1 µM", "setting": "786-0", "result": 100, "unit": "%"}, {"measurement": "growth at 100 µM", "setting": "RPMI-8226 [5]", "result": -14, "unit": "%"}, {"measurement": "growth at 0.01 µM", "setting": "SF-268 [6]", "result": 95, "unit": "%"}, {"measurement": "growth at 0.1 µM", "setting": "HL-60(TB)", "result": 26, "unit": "%"}, {"measurement": "growth at 0.1 µM", "setting": "K562", "result": 95, "unit": "%"}, {"measurement": "growth at 0.1 µM", "setting": "RPMI-8226 [7]", "result": 98, "unit": "%"}, {"measurement": "growth at 0.01 µM", "setting": "ACHN", "result": 103, "unit": "%"}, {"measurement": "growth at 0.01 µM", "setting": "HCT-15", "result": 95, "unit": "%"}, {"measurement": "growth at 10 µM", "setting": "MCF7", "result": 11, "unit": "%"}, {"measurement": "growth at 10 µM", "setting": "BT-549", "result": 36, "unit": "%"}, {"measurement": "growth at 1 µM", "setting": "NCI-H460", "result": 94, "unit": "%"}, {"measurement": "growth at 0.1 µM", "setting": "MOLT-4", "result": 94, "unit": "%"}, {"measurement": "growth at 10 µM", "setting": "RPMI-8226 [8]", "result": 9, "unit": "%"}, {"measurement": "growth at 1 µM", "setting": "NCI-H226", "result": 92, "unit": "%"}, {"measurement": "growth at 0.1 µM", "setting": "NCI-H322M", "result": 95, "unit": "%"}, {"measurement": "growth at 0.01 µM", "setting": "SNB-19", "result": 96, "unit": "%"}, {"measurement": "growth at 0.01 µM", "setting": "OVCAR-3 [9]", "result": 100, "unit": "%"}, {"measurement": "growth at 0.01 µM", "setting": "LOX IMVI", "result": 95, "unit": "%"}, {"measurement": "growth at 1 µM", "setting": "SF-295", "result": 59, "unit": "%"}]}]}
